{
  "source": "patent EP1154795B1",
  "about": "“MEANS FOR TREATING AND DIAGNOSING RESTLESS LEGS SYNDROME” (priority 1998, dated 2000)",
  "tested_on": "patients with light to moderate RLS/PMLS",
  "test": "Double-blind, placebo controlled parallel group study with donepezil",
  "type": "in vivo",
  "description": "Double-blind, placebo controlled parallel group study with donepezil. In a double-blind, placebo controlled parallel study with the CEI donepezil we studied 9 patients with light to moderate RLS/PMLS (PLM index, PLMI = 3-17).",
  "key": {"[1]": {"settings": "5mg once daily, evening dose for 21 days"}},
  "data": [
    {"smiles": "COc1cc2c(cc1OC)C(=O)C(CC1CCN(Cc3ccccc3)CC1)C2", "note": "(stereo not drawn) [Donepezil, donepezil]", "values": [
      {"measurement": "change in total sleep time after treatment", "setting": "[1]", "value": "no significant change"},
      {"measurement": "increase of the proportion of rapid eye movement sleep after treatment", "setting": "[1]", "value": "approximately 30%"},
      {"measurement": "side effects during the study period", "setting": "[1]", "value": "No side effects were reported"},
      {"measurement": "mean reduction of PLMI", "setting": "5mg once daily, evening dose for 21 days, from 8.3 to 5.3", "value": "approximately 36%"},
      {"measurement": "Marked reduction of PLMI (reduction in 5 patients)", "setting": "5 of 9 patients, minor change in 3 patients, one patient increased PLMI, 5mg once daily for 21 days", "value": "57-100%"},
      {"measurement": "mean PLMI after treatment", "setting": "9 patients (PLMI = 3-17), 5mg once daily, evening dose for 21 days, mean PLMI reduced from 8.3", "value": 5.3}
    ]}
  ]
}
